Test results: BindingDB's records for doi:10.7270/Q2SB445M (Nmmlsc, 2009)

Target: Ras-related protein Rab-7a (Canis lupus familiaris, UniProt P18067)
Assay: Rab7 GTP binding inhibitors, further analogs, SAR follow-up, biochemical, additional analogs, wildtype, multiplex bead flow cytometry (AID 2036)

Ras-related protein Rab-7a, sequence (P18067 whole entry): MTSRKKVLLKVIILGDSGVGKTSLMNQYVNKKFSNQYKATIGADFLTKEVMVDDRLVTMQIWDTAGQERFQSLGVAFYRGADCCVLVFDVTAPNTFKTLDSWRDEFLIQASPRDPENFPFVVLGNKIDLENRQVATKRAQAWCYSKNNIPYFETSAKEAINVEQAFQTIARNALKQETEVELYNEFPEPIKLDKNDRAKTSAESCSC

| Compound | Ki |
| --- | --- |
| O=C1Nc2c(F)cccc2C1=C1Nc2ccccc2C1=O | 1560 nM |
| O=C1NC(=S)N/C1=C1\C(=O)Nc2ccccc21 [(3Z)-3-(5-oxo-2-sulfanylideneimidazolidin-4-ylidene)-1H-indol-2-one] | 870 nM |
